Assays:
Format in all cases: in vivo
[1] = test system: Triticum aestivum; test: Test Example 4: effect on crop by application to foliage (diluvial soil, plastic box); settings: 320 g/ha; for e (Triticum aestivum) effect on crop grade: foliage application
Method in brief: (§1)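 Seeds sown in sterilized diluvial soil, covered ~1.5 cm, grown 14 days in greenhouse at 25° C. to 30° C. Emulsion formulation diluted in water to set rate (g/ha) and sprayed onto stems and leaves. Effect scored visually 3 weeks later on 0–5 scale (5 = ≥90% herbicidal ratio, 0 = ≤5%).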

[2] = test system: Brassica campestris L.; test: as above; settings: 320 g/ha; for g (Brassica campestris L.) effect on crop grade: foliage application
Method in brief: as §1

[3] = test system: Zea mays; test: as above; settings: 320 g/ha; for b (Zea mays) effect on crop grade: foliage application
Method in brief: as §1

[4] = test system: Beta vulgaris ssp. vulgaris; test: as above; settings: 320 g/ha; for f (Beta vulgaris ssp. vulgaris) effect on crop grade: foliage application
Method in brief: as §1

[5] = test system: directly sowed Oryza sativa; test: as above; settings: 320 g/ha; for d (directly sowed Oryza sativa) effect on crop grade: foliage application
Method in brief: as §1

[6] = test system: Glycine max; test: as above; settings: 320 g/ha; for c (Glycine max) effect on crop grade: foliage application
Method in brief: as §1

[7] = test system: Echinochloa oryzacola Vasing.; test: Test Example 1: herbicidal activity, application before weed generation in submerged conditions; settings: Application herbicide amount 320 g/ha; Seventeenth Table
Method in brief: (§2)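 Pre-emergence water-surface application under 4 cm flooding, same day as sowing, with rice transplanted at 2.5 leaf stage. Dose given as g/ha. Plants grown at 25° C. to 30° C. and rated three weeks later on a 0 (≤5%) to 5 (≥90%) herbicidal-ratio scale.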

[8] = test system: Monochoria vaginalis; test: as above; settings: Application herbicide amount 320 g/ha; Seventeenth Table
Method in brief: as §2

[9] = test system: Scirpus juncoides; test: as above; settings: Application herbicide amount 320 g/ha; Seventeenth Table
Method in brief: as §2

[10] = test system: Chenopodium album; test: Test Example 4: herbicidal effect by application to foliage (diluvial soil, plastic box); settings: 320 g/ha; for O (Chenopodium album) herbicidal effect grade: foliage application
Method in brief: as §1

[11] = test system: Amaranthus retroflexus; test: as above; settings: 320 g/ha; for N (Amaranthus retroflexus) herbicidal effect grade: foliage application
Method in brief: as §1

[12] = test system: Apera spica-venti.; test: as above; settings: 320 g/ha; for L (Apera spica-venti.) herbicidal effect grade: foliage application
Method in brief: as §1

[13] = test system: Abutilon theophrasti; test: as above; settings: 320 g/ha; for M (Abutilon theophrasti) herbicidal effect grade: foliage application
Method in brief: as §1

[14] = test system: Avena fatua; test: as above; settings: 320 g/ha; for I (Avena fatua) herbicidal effect grade: foliage application
Method in brief: as §1

[15] = test system: Veronica persica; test: as above; settings: 320 g/ha; for R (Veronica persica) herbicidal effect grade: foliage application
Method in brief: as §1

[16] = test system: Setaria viridis; test: as above; settings: 320 g/ha; for G (Setaria viridis) herbicidal effect grade: foliage application
Method in brief: as §1

[17] = test system: Echinochloa crus-galli var. crus-galli; test: as above; settings: 320 g/ha; for H (Echinochloa crus-galli var. crus-galli) herbicidal effect grade: foliage application
Method in brief: as §1

[18] = test system: Galium spurium; test: as above; settings: 320 g/ha; for Q (Galium spurium) herbicidal effect grade: foliage application
Method in brief: as §1

[19] = test system: Digitaria ciliaris; test: as above; settings: 320 g/ha; for F (Digitaria ciliaris) herbicidal effect grade: foliage application
Method in brief: as §1

[20] = test system: Stellaria media; test: as above; settings: 320 g/ha; for P (Stellaria media) herbicidal effect grade: foliage application
Method in brief: as §1

[21] = test system: Alopecurus myosuroides; test: as above; settings: 320 g/ha; for J (Alopecurus myosuroides) herbicidal effect grade: foliage application
Method in brief: as §1

[22] = test system: Lolium multiflorum Lam.; test: as above; settings: 320 g/ha; for K (Lolium multiflorum Lam.) herbicidal effect grade: foliage application
Method in brief: as §1

SMILES	e (Triticum aestivum) effect on crop grade [1]	g (Brassica campestris L.) effect on crop grade [2]	b (Zea mays) effect on crop grade [3]	f (Beta vulgaris ssp. vulgaris) effect on crop grade [4]	d (directly sowed Oryza sativa) effect on crop grade [5]	c (Glycine max) effect on crop grade [6]	A: Echinochloa oryzicola Vasing. (herbicidal effect grade) [7]	C: Monochoria vaginalis (herbicidal effect grade) [8]	B: Scirpus juncoides (herbicidal effect grade) [9]	O (Chenopodium album) herbicidal effect grade [10]	N (Amaranthus retroflexus) herbicidal effect grade [11]	L (Apera spica-venti.) herbicidal effect grade [12]	M (Abutilon theophrasti) herbicidal effect grade [13]	I (Avena fatua) herbicidal effect grade [14]	R (Veronica persica) herbicidal effect grade [15]	G (Setaria viridis) herbicidal effect grade [16]	H (Echinochloa crus-galli var. crus-galli) herbicidal effect grade [17]	Q (Galium spurium) herbicidal effect grade [18]	F (Digitaria ciliaris) herbicidal effect grade [19]	P (Stellaria media) herbicidal effect grade [20]	also measured
CC(C)Nc1nnc2c(C(=O)Nc3nnnn3C)ccc(C(F)(F)F)n12 [2-066]	3 (Herbicidal ratio of 40% or more and less than 70%)	4 (Herbicidal ratio of 70% or more and less than 90%)	4 (Herbicidal ratio of 70% or more and less than 90%)	5 (Herbicidal ratio of 90% or more (almost completely withered))	4 (Herbicidal ratio of 70% or more and less than 90%)	1 (Herbicidal ratio of 5% or more and less than 20%)	5 (Herbicidal ratio of 90% or more (almost completely withered))	4 (Herbicidal ratio of 70% or more and less than 90%)	5 (Herbicidal ratio of 90% or more (almost completely withered))	5 (Herbicidal ratio of 90% or more (almost completely withered))	5 (Herbicidal ratio of 90% or more (almost completely withered))	3 (Herbicidal ratio of 40% or more and less than 70%)	4 (Herbicidal ratio of 70% or more and less than 90%)	2 (Herbicidal ratio of 20% or more and less than 40%)	5 (Herbicidal ratio of 90% or more (almost completely withered))	5 (Herbicidal ratio of 90% or more (almost completely withered))	5 (Herbicidal ratio of 90% or more (almost completely withered))	3 (Herbicidal ratio of 40% or more and less than 70%)	5 (Herbicidal ratio of 90% or more (almost completely withered))	5 (Herbicidal ratio of 90% or more (almost completely withered))	J (Alopecurus myosuroides) herbicidal effect grade [21]: 3 (Herbicidal ratio of 40% or more and less than 70%); K (Lolium multiflorum Lam.) herbicidal effect grade [22]: 3 (Herbicidal ratio of 40% or more and less than 70%)
Cn1nnnc1NC(=O)c1ccc(C(F)(F)F)n2c([S+](C)[O-])nnc12 (stereo not drawn) [2-067]	4 (Herbicidal ratio of 70% or more and less than 90%)	5 (Herbicidal ratio of 90% or more (almost completely withered))	5 (Herbicidal ratio of 90% or more (almost completely withered))	5 (Herbicidal ratio of 90% or more (almost completely withered))	5 (Herbicidal ratio of 90% or more (almost completely withered))	4 (Herbicidal ratio of 70% or more and less than 90%)	5 (Herbicidal ratio of 90% or more (almost completely withered))	4 (Herbicidal ratio of 70% or more and less than 90%)	4 (Herbicidal ratio of 70% or more and less than 90%)	5 (Herbicidal ratio of 90% or more (almost completely withered))	5 (Herbicidal ratio of 90% or more (almost completely withered))	3 (Herbicidal ratio of 40% or more and less than 70%)	5 (Herbicidal ratio of 90% or more (almost completely withered))	5 (Herbicidal ratio of 90% or more (almost completely withered))	5 (Herbicidal ratio of 90% or more (almost completely withered))	5 (Herbicidal ratio of 90% or more (almost completely withered))	5 (Herbicidal ratio of 90% or more (almost completely withered))	4 (Herbicidal ratio of 70% or more and less than 90%)	5 (Herbicidal ratio of 90% or more (almost completely withered))	5 (Herbicidal ratio of 90% or more (almost completely withered))	J (Alopecurus myosuroides) herbicidal effect grade [21]: 4 (Herbicidal ratio of 70% or more and less than 90%); K (Lolium multiflorum Lam.) herbicidal effect grade [22]: 4 (Herbicidal ratio of 70% or more and less than 90%)
COc1ccc(CSc2nnc3c(C(=O)Nc4nnnn4C)ccc(C(F)(F)F)n23)cc1 [2-077]	–	–	–	–	–	–	5 (Herbicidal ratio of 90% or more (almost completely withered))	3 (Herbicidal ratio of 40% or more and less than 70%)	3 (Herbicidal ratio of 40% or more and less than 70%)	–	–	–	–	–	–	–	–	–	–	–	effect on crop, e (Triticum aestivum) ([1]; application to foliage): 0 (Herbicidal ratio of 5% or less (almost no effect)); effect on crop, g (Brassica campestris L.) ([2]; application to foliage): 2 (Herbicidal ratio of 20% or more and less than 40%); effect on crop, b (Zea mays) ([3]; application to foliage): 0 (Herbicidal ratio of 5% or less (almost no effect)); effect on crop, f (Beta vulgaris ssp. vulgaris) ([4]; application to foliage): 5 (Herbicidal ratio of 90% or more (almost completely withered)); effect on crop, d (directly sowed Oryza sativa) ([5]; application to foliage): 2 (Herbicidal ratio of 20% or more and less than 40%); effect on crop, c (Glycine max) ([6]; application to foliage): 0 (Herbicidal ratio of 5% or less (almost no effect)); herbicidal effect, O (Chenopodium album) ([10]; application to foliage): 5 (Herbicidal ratio of 90% or more (almost completely withered)); herbicidal effect, N (Amaranthus retroflexus) ([11]; application to foliage): 5 (Herbicidal ratio of 90% or more (almost completely withered)); herbicidal effect, L (Apera spica-venti.) ([12]; application to foliage): 0 (Herbicidal ratio of 5% or less (almost no effect)); herbicidal effect, M (Abutilon theophrasti) ([13]; application to foliage): 4 (Herbicidal ratio of 70% or more and less than 90%); herbicidal effect, I (Avena fatua) ([14]; application to foliage): 0 (Herbicidal ratio of 5% or less (almost no effect)); herbicidal effect, R (Veronica persica) ([15]; application to foliage): 3 (Herbicidal ratio of 40% or more and less than 70%); herbicidal effect, G (Setaria viridis) ([16]; application to foliage): 2 (Herbicidal ratio of 20% or more and less than 40%); herbicidal effect, H (Echinochloa crus-galli var. crus-galli) ([17]; application to foliage): 4 (Herbicidal ratio of 70% or more and less than 90%); herbicidal effect, Q (Galium spurium) ([18]; application to foliage): 3 (Herbicidal ratio of 40% or more and less than 70%); herbicidal effect, F (Digitaria ciliaris) ([19]; application to foliage): 4 (Herbicidal ratio of 70% or more and less than 90%); herbicidal effect, P (Stellaria media) ([20]; application to foliage): 4 (Herbicidal ratio of 70% or more and less than 90%); herbicidal effect, J (Alopecurus myosuroides) ([21]; application to foliage): 0 (Herbicidal ratio of 5% or less (almost no effect)); herbicidal effect, K (Lolium multiflorum Lam.) ([22]; application to foliage): 0 (Herbicidal ratio of 5% or less (almost no effect))
